Test system: Human immunodeficiency virus
Assay: Inhibition of HIV reverse transcriptase at 200 ug/ml

Row | inhibition [%] | SMILES
1 | 57.4 | O=C(/C=C/c1ccc(O)c(O)c1)O[C@H](Cc1ccc(O)c(O)c1)C(=O)O
2 | 20.1 | C/C=C(\C)C(=O)O[C@H]1[C@H](O)[C@@]2(CO)[C@H](CC1(C)C)C1=CC[C@@H]3[C@@]4(C)CC[C@H](O[C@@H]5O[C@H](C(=O)OCCC)[C@@H](O)[C@H](O[C@@H]6O[C@H](CO)[C@@H](O[C@@H]7OC[C@@H](O)[C@H](O)[C@H]7O)[C@H](O)[C@H]6O)[C@H]5O)C(C)(C)[C@@H]4CC[C@@]3(C)[C@]1(C)[C@@H](O)[C@H]2O
3 | 0 | O=C(O)/C=C/c1ccc(O)c(O)c1
